SMILES strings stand for the structures.

Results on two compounds are retold here after patent US6821926B1, “Carbamoyl triazolinone based herbicide” (Bayer Aktiengesellschaft, priority 1999, dated 2004).

Common to all, as to experiment: Pre-emergence/greenhouse herbicidal test, % damage
Type in all cases: in vivo

The subject of one test is Abutilon. The settings on record: pre-emergence, after approximately 3 weeks. As for the experimental part:
(§1) Customary formulations of the respective active compounds were used. Butafenacil was employed as Inspire® 100 EC, azafenidin as an 80 WG formulation and the compound of the formula (I-1) as a 70 WG formulation. The active compounds were used to prepare an aqueous spray mixture with 0.1% of Renex-36 as additive. Pre-emergence/greenhouse Seeds of the test plants are sown in standard soil. After 24 hours, the test compound or the combination of test compounds, is sprayed onto the soil surface in such a manner as to apply the amount of active compound per unit area desired in each case. The concentration of the spray mixture is chosen so that the desired amounts of active compound desired are applied in 500 l of water per ha. After the spray application, the plant containers are placed in the greenhouse under constant light and temperature conditions. After approximately 3 weeks, the degree of damage of the crop plants is scored in % damage in comparison with the development of the untreated control. The figures denote: 0%=no damage (as untreated control) 100%=Total destruction/damage

The next test deals with Alopecurus. Conditions: pre-emergence, after approximately 3 weeks. How it is done:
as §1

The subject of another test is Cassia. The settings on record: pre-emergence, after approximately 3 weeks. As for the experimental part: as §1
The subject of a further test is Datura. The settings on record: pre-emergence, after approximately 3 weeks. As for the experimental part:
as §1

The test system of the next test is Digitaria. Conditions: pre-emergence, after approximately 3 weeks. How it is done:
as §1

The subject of a further test is Galium. The settings on record: pre-emergence, after approximately 3 weeks. As for the experimental part: as §1
The test system of the next test is Ipomea. Conditions: pre-emergence, after approximately 3 weeks. As for the experimental part:
as §1

A further test relates to Setaria. The settings on record: pre-emergence, after approximately 3 weeks. How it is done:
as §1

Another test concerns Solanum. Conditions: after approximately 3 weeks. As for the experimental part:
as §1

For the next test, the system named is Xanthium. The settings on record: pre-emergence, after approximately 3 weeks. How it is done: as §1

Take `C=CCOC(=O)C(C)(C)OC(=O)c1cc(-n2c(=O)cc(C(F)(F)F)n(C)c2=O)ccc1Cl` [Butafenacil, [1,1-dimethyl-2-oxo-2-(2-propenyloxy)]-ethyl 2-chloro-5-(3,6-dihydro-3-methyl-2,6-dioxo-4-trifluoromethyl-1(2H)-pyrimidinyl)-benzoate]: the Abutilon observed in the test with Abutilon (2 g ai/ha) was found to be 30%. Also, the Alopecurus observed in the test on Alopecurus (0.5 g ai/ha) and in the test on Alopecurus (2 g ai/ha) was 0% throughout. The Cassia observed with Cassia (0.5 g ai/ha) is 0%. The Datura observed with Datura (2 g ai/ha) was determined as 30%. Also, the Digitaria observed in the test with Digitaria (0.5 g ai/ha) and in the test on Digitaria (1 g ai/ha) was 20% in each case. Further, the Galium observed in the test with Galium (1 g ai/ha) is 0%. In addition, the Ipomea observed in the test on Ipomea (0.5 g ai/ha) turned out to be 0%. Also, the Setaria observed with Setaria (0.5 g ai/ha) and with Setaria (2 g ai/ha) was 0% throughout. Moreover, the Solanum observed is listed as 0% in the test with Solanum (pre-emergence, 0,5 g ai/ha); 0% in the test with Solanum (pre-emergence, 1 g ai/ha); 0% with Solanum (pre-emergence, 2 g ai/ha). Further, in the test on Xanthium (2 g ai/ha), the Xanthium observed is reported as 0%.
Turning to `CC(C)c1nn(C(=O)NC(C)(C)C)c(=O)n1N` [Compound (I-1), 4-amino-5-(1-methyl-ethyl)-2-(1,1-dimethyl-ethyl-aminocarbonyl)-2,4-dihydro-3H-1,2,4-triazol-3-one], in the test with Abutilon (60 g ai/ha), the Abutilon observed is listed as 50%. For the same compound, in the test with Alopecurus (125 g ai/ha), the Alopecurus observed worked out at 0%. In addition, the Cassia observed with Cassia (60 g ai/ha) is on record as 30%. Moreover, in the test with Datura (60 g ai/ha), the Datura observed is listed as 50%. The Digitaria observed in the test with Digitaria (125 g ai/ha) was found to be 40%. Besides, in the test on Galium (125 g ai/ha), the Galium observed is 80%. For the same compound, the Ipomea observed in the test on Ipomea (125 g ai/ha) is given as 50%. In addition, the Setaria observed in the test on Setaria (125 g ai/ha) came to 0%. Further, in the test on Solanum (pre-emergence, 60 g ai/ha), the Solanum observed was found to be 90%. In addition, the Xanthium observed with Xanthium (125 g ai/ha) is listed as 90%.
